{"source": "patent US12336986B2", "about": "“Treatment and prevention of ocular neurodegenerative disorder” (The Jackson Laboratory, priority 2015, dated 2025)", "key": {"SNAP-25": {"test_system": "SNAP-25", "assay": "Synapse loss (SNAP-25 staining) in D2 retinas", "format": "in vivo, mouse", "details": "D2 mice, NAM 550 mg/kg/day", "experimental": "(§1) For immunofluorescence staining, mice were euthanized by cervical dislocation, their eyes enucleated and placed in 4% PFA ON. Retinas were dissected and flat-mounted onto slides, permeabilized with 0.1% Triton-X for 15 mins, blocked with 2% BSA in PBS and stained ON at RT in primary antibody (see below for list of antibodies).\n(§2) After primary antibody incubation, retinas were washed 5 times in PBS, stained for 4 hrs at RT with secondary antibody. Slides were then washed a further 5 times with PBS, stained with DAPI for 15 mins, mounted with fluoromount, coverslipped and sealed with nail-polish.\n(§3) For retinal sections, eyes were cryoprotected in 30% sucrose ON, frozen in OCT and cryosectioned at 18 μm. Slides were warmed to room temperature and the procedure above was followed. Retinas were imaged on a Zeiss AxioObserver for low resolution counts. Retinal sections were imaged on a Leica SP8 far higher resolution images."}, "HIF-1α": {"test_system": "HIF-1α", "assay": "HIF-1α induction (immunostaining, RNA-seq) in D2 retinas", "format": "in vivo, mouse", "details": "D2 mice, early glaucoma, NAM 550 mg/kg/day", "experimental": "as §1, §2, §3"}, "γH2AX": {"test_system": "γH2AX", "assay": "DNA damage (γH2AX staining) in D2 retinas", "format": "in vivo, mouse", "details": "D2 mice, early glaucoma, NAM 550 mg/kg/day", "experimental": "as §1, §2, §3"}, "[1]": {"test_system": "ganglion cell layer cells (GCL cells)", "assay": "Whole retina explant culture (axotomy culture model), DAPI nuclei", "format": "cell-based, mouse", "text": "Mice were euthanized, eyes enucleated and placed immediately into ice-cold HBSS. Retinas were dissected from the eyes in HBSS on ice, flat-mounted with the ganglion cell layer up on a cell culture insert (Millipore), and submerged in tissue culture media containing Neurobasal-A, 1% penicillin-streptomycin (10000 U/mL), 1% glutamine (100×), 1% N-2 (100×) and 1% B-27 (50×) (all ThermoFisher Scientific).\nFor drug treated retinas tissue culture media was made as above and supplemented with one of the following compounds (all Sigma unless otherwise): β-NAD, NAM (PanReac AppliChem), β-NMN. Retinas were incubated in 6-well plates at 37° C. and 4% CO2 for 5 days before being fixed in 4% PFA and stained with DAPI. (For untreated “Day 0” controls, retinas were dissected and placed straight into 4% PFA.) Retinas were imaged on a Zeiss AxioObserver."}, "[2]": {"test_system": "retinal ganglion cells (RGCs)", "assay": "RNA-sequencing of FAC sorted RGCs, differential gene expression", "format": "in vivo, mouse", "details": "for RGC gene expression changes (RNA-seq): D2 mice, NAM 550 mg/kg/day in drinking water from 6-month, 9-month RGCs", "experimental": "Prior to cell collection, all surfaces and volumes were cleaned with 70% ethanol and RNaseZap (ThermoFisher Scientific) solution followed by dH2O. Mice were euthanized, eyes enucleated and placed immediately into ice-cold HBSS. Retinas were dissected from the eyes (4- or 9-month of age, no axon degeneration confirmed by PPD staining, data not shown) in HBSS on ice and placed directly into 100 μL, of a custom HBSS (Gibco), dispase (5 U/mL) (Stemcell Technologies), DNase 1 (2000 U/mL) (Worthington Biochemical) and SUPERase (1 U/μL) (ThermoFisher Scientific) solution. All retinas were from eyes that had no glaucomatous axon degeneration by PPD staining and analysis (see optic nerve assessment below). Retinas were incubated for 20 mins at 37° C. and shaken at 350 RPM in an Eppendorf Thermomixer R followed by gentle trituration using a 200 μL pipette. Samples were blocked in 2% BSA, SUPERase (1 U/μL) in HBSS, and stained with conjugated antibodies against Cd11b, Cd11c, Cd34, Cd45.2, GFAP, Thy1.2 as well as DAPI. This cocktail allowed other retina cell types to be accurately removed during FACS.\nFACS was performed on a FACSAria (BD Biosciences). Thy1.2^+ (and negative for all other markers) RGCs were sorted into 300 μL buffer RLT+1% β-ME, vortexed and frozen at −80° C. until further processing.\n[…] RGC samples were defrosted on ice and homogenized by syringe in RLT Buffer (total volume 300 μL). Total RNA was isolated using RNeasy micro kits according to manufacturer's protocols (Qiagen) including the optional DNase treatment step, and quality was assessed using an Agilent 2100 Bioanalyzer. The concentration was determined using Ribogreen Assay (Invitrogen). […]\nLibrary size produced was analyzed using qPCR using the Library Quantitation kit/Illumina GA/ABI Prism (Kapa Biosystems). Libraries were barcoded, pooled, and sequenced 6 samples per lane on a HiSeq 2500 sequencer (illumina) giving a depth of 30-35 million reads per sample.\nSamples were subjected to quality control analysis by a custom quality control python script. Reads with 70% of their bases having a base quality score ≥30 were retained for further analysis. Read alignment was performed using TopHat v 2.0.7 (Kim et al., Genome Biol 14, R36, 2013) and expression estimation was performed using HTSeq (Anders et al., Bioinformatics 31, 166-169, 2015) with supplied annotations and default parameters against the DBA/2J mouse genome (build-mm10). […]\nDifferential gene expression analysis between groups was performed using edgeR v 3.10.5 (Robinson et al., Bioinformatics 26, 139-140, 2010) following, batch correction using RUVSeq, the removal of outlier samples and lowly expressed genes by removing genes with less than five reads in more than two samples. […]"}, "dorsal root ganglion": {"test_system": "dorsal root ganglion", "details": "U.S. Pat. No. 7,776,326; cited from earlier work"}, "RGCs": {"test_system": "RGCs", "details": "U.S. Pat. No. 7,776,326; injected intravitreally; cited from earlier work"}, "[3]": {"details": "cited from earlier work"}, "[4]": {"details": "axotomized retinas in culture, 5 days"}, "[5]": {"details": "RGCs, q<0.05, NAM 550 mg/kg/day"}}, "note": "Entries after “also recorded” stand apart in the source; their conditions may differ.", "data": [{"smiles": "NC(=O)c1cccnc1", "note": "[NAM, nicotinamide]", "values": [{"measurement": "synapse loss in early glaucoma (SNAP-25 staining)", "setting": "SNAP-25", "result": "protected against early synapse loss; also recorded: prevents synapse loss"}, {"measurement": "HIF-1α upregulation / transcriptional induction", "setting": "HIF-1α", "result": "limited; also recorded: lessens upregulation"}, {"measurement": "DNA damage (γH2AX staining)", "setting": "γH2AX", "result": "limited levels of DNA damage; also recorded: prevents DNA damage"}, {"measurement": "nuclear diameter shrinkage (DAPI-labeled nuclei)", "setting": "[1]; axotomized D2 retinas in culture, 5 days post-axotomy, NAM 100 mM and 500 mM", "result": "most robust protection against nuclear shrinkage; also recorded: protects against cell shrinkage; also recorded: indistinguishable from uninjured, baseline controls"}, {"measurement": "ganglion cell layer cell death / cell density", "setting": "[1]; [4]", "result": "attractive dose-response effect"}, {"measurement": "protective effect in retina tissue culture", "setting": "[1]; [4]", "result": "robustly protected"}, {"measurement": "RGC gene expression changes (RNA-seq)", "setting": "[2]", "result": "prevented even the earliest molecular signs of glaucoma in the majority of treated eyes; also recorded: prevented the vast majority of age-related gene expression changes; also recorded: returned to normal; also recorded: molecularly similar to controls; also recorded: molecularly similar to both young and age-matched no glaucoma control RCGs; also recorded: prevents transcriptome imbalances and OXPHOS imbalances; also recorded: prevents age- and disease-related gene expression changes"}, {"measurement": "RGC gene expression changes (RNA-seq)", "setting": "[2]; listed as nicotinamide", "result": "more closely molecularly matched to young control mice"}, {"measurement": "number of DE genes, 4-month D2-Gpnmb+ vs. NAM", "setting": "[2]; [5]", "result": 83}, {"measurement": "number of DE genes, 9-month D2-Gpnmb+ vs. NAM", "setting": "[2]; [5]", "result": 4437}, {"measurement": "axonal degeneration after axotomy", "setting": "dorsal root ganglion", "result": "did not work to diminish axonal degeneration"}, {"measurement": "axon degeneration in RGCs after intravitreal injection", "setting": "RGCs", "result": "not protective against axon degeneration in RGCs; also recorded: did not show any difference from the control animals"}, {"measurement": "doses with an incidence of hepatotoxicity", "setting": "[3]; humans, attributed to impurities in older preparations", "result": "> 4", "unit": "grams NAM per day"}, {"measurement": "cases of jaundice reported", "setting": "[3]; survey of 6000 patients on high doses", "result": 3}]}]}
